The compounds below were run against recombinant human GSK-3β (Homo sapiens, UniProt P49841) (assay: Measurement of GSK-3 enzyme activity inhibition (32P phosphorylation of phospho-glycogen synthase peptide-2)). Conditions: 20 μM ATP, 20 minutes at room temperature, read-out: GSK-3 enzyme inhibiting activity (IC50).
recombinant human GSK-3β, sequence (P49841 whole entry): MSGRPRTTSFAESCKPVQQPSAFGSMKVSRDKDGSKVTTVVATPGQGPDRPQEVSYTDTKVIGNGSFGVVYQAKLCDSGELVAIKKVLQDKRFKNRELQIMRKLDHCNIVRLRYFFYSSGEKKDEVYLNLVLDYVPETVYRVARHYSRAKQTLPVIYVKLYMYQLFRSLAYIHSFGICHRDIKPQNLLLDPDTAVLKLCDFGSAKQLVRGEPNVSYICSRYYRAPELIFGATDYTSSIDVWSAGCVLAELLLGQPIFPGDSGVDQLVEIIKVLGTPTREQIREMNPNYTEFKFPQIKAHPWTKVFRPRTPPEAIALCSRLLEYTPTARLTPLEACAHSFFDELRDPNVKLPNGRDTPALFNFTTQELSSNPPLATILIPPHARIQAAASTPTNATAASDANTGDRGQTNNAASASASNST
Assay type: biochemical
Protocol: Measurement of GSK-3 Enzyme Activity Inhibition
After adding 25 μL of phospho-glycogen synthase peptide-2 substrate solution [6 μM phospho -glycogen synthase peptide-2, 20 μM ATP, 16 mM MOPS buffer (pH 7.0), 0.2 mM EDTA, 20 mM magnesium acetate, 0.1 μCi [γ-^32P]ATP (specific activity: approximately 110 TBq/mmol)]to 5 μL of the test compound using 5% dimethylsulfoxide as the solvent, reaction was initiated by further addition of 20 μL of a GSK-3β enzyme solution [10 mU recombinant human GSK-3β, 20 mM MOPS buffer (pH 7.0), 1 mM EDTA, 0.1% polyoxyethylene lauryl ether (23 Lauryl Ether; Brij 35), 5% glycerol, 0.1% β-mercaptoethanol]. After conducting the reaction for 20 minutes at room temperature, an equivalent volume of a 200 mM phosphoric acid solution was added to quench the reaction, and 90 μL of the reaction product was adsorbed onto a MultiScreen PH plate (Millipore) and rinsed with a 100 mM phosphoric acid solution. After drying the plate, 30 μL of Micro Scint-O (Packard BioScience) was added, and the cpm was measured with a scintillation counter to determine the inhibiting activity. Phospho GS Peptide2 is […]P)-Glu-Asp-Glu-Glu-Glu (SEQ ID NO:1).
For `N#Cc1c(C=Cc2ccccc2)[nH]c2c(=O)[nH]cnc12` [1-0006], the IC50 was 1000 to 10000 nM. `N#Cc1c(-c2ccccc2)[nH]c2c(=O)[nH]cnc12` [1-0007] showed an IC50 of 1000 to 10000 nM. With `COc1ccccc1-c1[nH]c2c(=O)[nH]cnc2c1C#N` [1-0038, 6-(2-methoxyphenyl)-4-oxo-3-hydropyrrolo[3,2-d]pyrimidine-7-carbonitrile] the IC50 was 1000 to 10000 nM. In the case of `CC(C)CCn1c(-c2ccccc2)c(C#N)c2nc[nH]c(=O)c21` [1-0113], the IC50 is reported as 1000 to 10000 nM. `CC(C)CCn1c(-c2ccccc2)c(C#N)c2nc[nH]c(=S)c21` [1-0114] showed an IC50 of 1000 to 10000 nM. With `CC(C)(C)Cn1c(-c2ccccc2)c(C#N)c2nc[nH]c(=S)c21` [1-0129] the IC50 was 1000 to 10000 nM. In the case of `CCCCCn1c(-c2ccccc2)c(C#N)c2nc[nH]c(=O)c21` [1-0132], the IC50 is reported as 1000 to 10000 nM. `N#Cc1c(-c2ccccc2)n(CCCO)c2c(=O)[nH]cnc12` [1-0194] gave an IC50 of 1000 to 10000 nM. In the case of `COCCn1c(-c2ccccc2)c(C#N)c2nc[nH]c(=S)c21` [1-0208], the IC50 is reported as 1000 to 10000 nM. In the case of `CCOCCn1c(-c2ccccc2)c(C#N)c2nc[nH]c(=S)c21` [1-0215], the IC50 is reported as 1000 to 10000 nM. In the case of `COCCCn1c(-c2ccccc2)c(C#N)c2nc[nH]c(=O)c21` [1-0227], the IC50 is reported as 1000 to 10000 nM. In the case of `CSCCCn1c(-c2ccccc2)c(C#N)c2nc[nH]c(=O)c21` [1-0263], the IC50 is reported as 1000 to 10000 nM. With `N#Cc1c(-c2ccccc2)n(CC2CC2)c2c(=S)[nH]cnc12` [1-0275] the IC50 was 1000 to 10000 nM. `N#Cc1cn(Cc2ccccc2)c2c(=S)[nH]cnc12` [1-0301] gave an IC50 of 1000 to 10000 nM. For `N#Cc1c(C2CC2)n(Cc2ccccc2)c2c(=O)[nH]cnc12` [1-0303], the IC50 was 1000 to 10000 nM. `N#Cc1c(-c2ccccc2)n(CCc2ccccc2)c2c(=S)[nH]cnc12` [1-0312] gave an IC50 of 1000 to 10000 nM. `N#Cc1c(-c2ccccc2)n(CCCc2ccccc2)c2c(=O)[nH]cnc12` [1-0320] showed an IC50 of 1000 to 10000 nM. In the case of `Cc1c(C#N)c2nc[nH]c(=S)c2n1CCCc1ccccc1` [1-0323], the IC50 is reported as 1000 to 10000 nM. `N#Cc1c(-c2ccccc2)n(CCOc2ccccc2)c2c(=S)[nH]cnc12` [1-0372] was tested, and the IC50 was 1000 to 10000 nM. Work on `Cn1cccc1-c1c(C#N)c2nc[nH]c(=S)c2n1CCN` [1-0459, 5-(2-aminoethyl)-6-(1-methylpyrrol-2-yl)-4-thioxo-3-hydropyrrolo[3,2-d]pyrimidine-7-carbonitrile] yielded an IC50 of 1000 to 10000 nM. `N#Cc1c(-c2c(F)cccc2F)n(CCN)c2c(=S)[nH]cnc12` [1-0460, 5-(2-aminoethyl)-6-(2,6-difluorophenyl)-4-thioxo-3-hydropyrrolo[3,2-d]pyrimidine-7-carbonitrile] was tested, and the IC50 was 1000 to 10000 nM. In the case of `N#Cc1c(-c2ccccc2)n(CCc2nc(-c3ccccc3)no2)c2c(=S)[nH]cnc12` [1-0495, 6-phenyl-5-[2-(3-phenyl(1,2,4-oxadiazol-5-yl))ethyl]-4-thioxo-3-hydropyrrolo[3,2-d]pyrimidine-7-carbonitrile], the IC50 is reported as 1000 to 10000 nM. Work on `N#Cc1c(-c2ccccc2)n(CCN2C(=O)c3ccccc3C2=O)c2c(=S)[nH]cnc12` [1-0501, 5-[2-(1,3-dioxoisoindolin-2-yl)ethyl]-6-phenyl-4-thioxo-3-hydropyrrolo[3,2-d]pyrimidine-7-carbonitrile] yielded an IC50 of 1000 to 10000 nM. `CC(C)OCCCn1c(-c2cc(O)cc(O)c2)c(C#N)c2nc[nH]c(=S)c21` [1-0529, 6-(3,5-dihydroxyphenyl)-5-[3-(methylethoxy)propyl]-4-thioxo-3-hydropyrrolo[3,2-d]pyrimidine-7-carbonitrile] was tested, and the IC50 was 10 to 30 nM. Work on `N#Cc1c(-c2ccccc2)n(CCCOc2ccccc2)c2c(=S)[nH]cnc12` [1-0537] yielded an IC50 of 1000 to 10000 nM. Work on `N#Cc1c(-c2cccc(C(=O)O)c2)[nH]c2c(=S)[nH]cnc12` [1-0687, 3-(7-cyano-4-thioxo-3-hydropyrrolo[4,5-d]pyrimidin-6-yl)benzoic acid] yielded an IC50 of 1000 to 10000 nM. Compound `N#Cc1c(-c2cccc(O)c2)[nH]c2c(=S)[nH]cnc12` [1-0698, 6-(3-hydroxyphenyl)-4-thioxo-3-hydropyrrolo[3,2-d]pyrimidine-7-carbonitrile] has an IC50 of 10 to 30 nM. Compound `N#Cc1c(-c2ccccc2Br)[nH]c2c(=S)[nH]cnc12` [1-0751, 6-(2-bromophenyl)-4-thioxo-3-hydropyrrolo[3,2-d]pyrimidine-7-carbonitrile] has an IC50 of 30 to 100 nM. `N#Cc1c(-c2ccccc2N)[nH]c2c(=S)[nH]cnc12` [1-0753, 6-(2-aminophenyl)-4-thioxo-3-hydropyrrolo[3,2-d]pyrimidine-7-carbonitrile] gave an IC50 of 1000 to 10000 nM. `N#Cc1c(-c2ccccc2Br)[nH]c2c(=O)[nH]cnc12` [1-1040, 6-(2-bromophenyl)-4-oxo-3-hydropyrrolo[3,2-d]pyrimidine-7-carbonitrile] showed an IC50 of 1000 to 10000 nM. Compound `CC(C)(C)OC(=O)NCCCn1c(-c2ccccc2)c(C#N)c2nc[nH]c(=O)c21` [2-0208] has an IC50 of 1000 to 10000 nM. With `CC(=O)OCCCn1c(-c2ccccc2)c(C#N)c2nc[nH]c(=O)c21` [2-0519] the IC50 was 1000 to 10000 nM. In the case of `N#Cc1c(-c2ccccc2)n(CCCOC(=O)c2ccco2)c2c(=O)[nH]cnc12` [2-0530], the IC50 is reported as 1000 to 10000 nM. Compound `N#Cc1c(-c2ccccc2)n(CCNC(=O)c2ccccc2)c2c(=S)[nH]cnc12` [2-0558] has an IC50 of 30 to 100 nM. `Cc1ccoc1-c1c(C#N)c2nc[nH]c(=S)c2n1CCNC(=O)C(F)(F)F` [2-0601, N-{2-[7-cyano-6-(3-methyl(2-furyl))-4-thioxo(3-hydropyrrolo[3,2-d]pyrimidin-5-yl)]ethyl}-2,2,2-trifluoroacetamide] gave an IC50 of 10 to 30 nM. `Cn1cccc1-c1c(C#N)c2nc[nH]c(=S)c2n1CCNC(=O)C(F)(F)F` [2-0604, N-{2-[7-cyano-6-(1-methylpyrrol-2-yl)-4-thioxo(3-hydropyrrolo[3,2-d]pyrimidin-5-yl)]ethyl}-2,2,2-trifluoroacetamide] gave an IC50 of 30 to 100 nM. `Cc1ccc(N)c(C(=O)NCCn2c(-c3ccccc3)c(C#N)c3nc[nH]c(=S)c32)c1` [2-0635, (2-amino-5-methylphenyl)-N-[2-(7-cyano-6-phenyl-4-thioxo(3-hydropyrrolo[3,2-d]pyrimidin-5-yl))ethyl]carboxamide] was tested, and the IC50 was 30 to 100 nM. Work on `Cc1ccoc1-c1c(C#N)c2nc[nH]c(=O)c2n1CCNC(=O)C(F)(F)F` [2-1664, N-{2-[7-cyano-6-(3-methyl(2-furyl))-4-oxo(3-hydropyrrolo[3,2-d]pyrimidin-5-yl)]ethyl}-2,2,2-trifluoroacetamide] yielded an IC50 of 1000 to 10000 nM. In the case of `N#Cc1c(-c2ccccc2)n(CCNCc2ccccc2)c2c(=S)[nH]cnc12` [2-1775, 6-phenyl-5-{2-[benzylamino]ethyl}-4-thioxo-3-hydropyrrolo[3,2-d]pyrimidine-7-carbonitrile], the IC50 is reported as 1000 to 10000 nM. In the case of `N#Cc1c(-c2ccccc2)n(CCNC(=O)Nc2cccc(C(=O)O)c2)c2c(=S)[nH]cnc12` [2-1777, 3-({N-[2-(7-cyano-6-phenyl-4-thioxo-3-hydropyrrolo[3,2-d]pyrimidin-5-yl)ethyl]carbamoyl}amino)benzoic acid], the IC50 is reported as 30 to 100 nM. Compound `N#Cc1c(-c2ccco2)n(CCNC(=O)C(F)(F)F)c2c(=S)[nH]cnc12` [2-1804, N-[2-(7-cyano-6-(2-furyl)-4-thioxo(3-hydropyrrolo[3,2-d]pyrimidin-5-yl))ethyl]-2,2,2-trifluoroacetamide] has an IC50 of 30 to 100 nM. `N#Cc1c(-c2ccccc2)n(CCn2c(=O)[nH]c3ccccc3c2=O)c2c(=S)[nH]cnc12` [2-1849, 5-[2-(2,4-dioxo(1,3-dihydroquinazolin-3-yl))ethyl]-6-phenyl-4-thioxo-3-hydropyrrolo[3,2-d]pyrimidine-7-carbonitrile] showed an IC50 of 1000 to 10000 nM. For `CN(CCn1c(-c2ccccc2)c(C#N)c2nc[nH]c(=S)c21)C(=O)C(F)(F)F` [2-1855], the IC50 was 30 to 100 nM. Work on `CN(C(=O)CCn1c(-c2ccccc2)c(C#N)c2nc[nH]c(=S)c21)c1ccccc1` [3-0099] yielded an IC50 of 1000 to 10000 nM. For `N#Cc1c(-c2ccccc2)n(CCC(=O)N2CCCC2)c2c(=S)[nH]cnc12` [3-0148], the IC50 was 30 to 100 nM. For `N#Cc1c(-c2ccccc2)n(CCC(=O)N2CCCCC2)c2c(=S)[nH]cnc12` [3-0152], the IC50 was < 10 nM. For `N#Cc1c(-c2ccco2)n(CCC(=O)N2CCCCC2)c2c(=S)[nH]cnc12` [3-0156], the IC50 was < 10 nM. For `N#Cc1c(-c2ccccc2)n(CCC(=O)N2CCC(C(=O)O)CC2)c2c(=S)[nH]cnc12` [3-0231, 1-[3-(7-cyano-6-phenyl-4-thioxo-3-hydropyrrolo[3,2-d]pyrimidin-5-yl)propanoyl]piperidine-4-carboxylic acid], the IC50 was < 10 nM. Work on `N#Cc1c(-c2ccccc2)n(CCC(=O)N2CCOCC2)c2c(=S)[nH]cnc12` [3-0294] yielded an IC50 of 30 to 100 nM. Compound `CCNC(=O)CCn1c(-c2ccccc2)c(C#N)c2nc[nH]c(=S)c21` [3-1792] has an IC50 of 30 to 100 nM. Work on `CCOC(=O)CCn1c(-c2ccccc2)c(C#N)c2nc[nH]c(=S)c21` [4-0005, ethyl 3-(7-cyano-6-phenyl-4-thioxo-3-hydropyrrolo[3,2-d]pyrimidin-5-yl)propanoate] yielded an IC50 of 1000 to 10000 nM. Work on `CCOC(=O)CCCn1c(-c2ccccc2)c(C#N)c2nc[nH]c(=O)c21` [4-0030] yielded an IC50 of 1000 to 10000 nM. Work on `N#Cc1c(C2CC2)n(CCC(=O)O)c2c(=S)[nH]cnc12` [4-0092, 3-(7-cyano-6-cyclopropyl-4-thioxo-3-hydropyrrolo[3,2-d]pyrimidin-5-yl)propanoic acid] yielded an IC50 of 10 to 30 nM. With `N#Cc1c(NC2CC2)n(CCNC(=O)c2ccccc2)c2c(=S)[nH]cnc12` [6-0413, N-{2-[7-cyano-6-(cyclopropylamino)-4-thioxo(3-hydropyrrolo[3,2-d]pyrimidin-5-yl)]ethyl}benzamide] the IC50 was 10 to 30 nM.
